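Cultured in 96-well plates, cells were exposed to test compound for 48 hours across five concentrations. GI50 = concentration required for 50% inhibition of growth.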 Active and inactive are the calls of the source. Rule as the data show it: active = GI50 up to about 1.1 µM and inactive = higher.
Columns and labels:
Assay in all cases: DTP human tumour cell line panel, 48 h
SR = test system: SR
LOX IMVI = test system: LOX IMVI
HL-60 = test system: HL-60
NCI-H226 = test system: NCI-H226
HOP-92 = test system: HOP-92
786-0 = test system: 786-0
TK-10 = test system: TK-10
NCI-H23 = test system: NCI-H23
HOP-62 = test system: HOP-62
Hs-578T = test system: Hs-578T
IGROV-1 = test system: IGROV-1
Malme-3M = test system: Malme-3M
OVCAR-3 = test system: OVCAR-3
EKVX = test system: EKVX
UO-31 = test system: UO-31
RXF 393 = test system: RXF 393
HCC 2998 = test system: HCC 2998
PC-3 = test system: PC-3
SK-MEL-2 = test system: SK-MEL-2
DLD-1 = test system: DLD-1

Row | Structure (SMILES) | GI50 (SR) | GI50 (LOX IMVI) | GI50 (HL-60) | GI50 (NCI-H226) | GI50 (HOP-92) | GI50 (786-0) | GI50 (TK-10) | GI50 (NCI-H23) | GI50 (HOP-62) | GI50 (Hs-578T) | GI50 (IGROV-1) | GI50 (Malme-3M) | GI50 (OVCAR-3) | GI50 (EKVX) | GI50 (UO-31) | GI50 (RXF 393) | GI50 (HCC 2998) | GI50 (PC-3) | GI50 (SK-MEL-2) | GI50 (DLD-1)
1 | Cc1cc(C)c2c(c1)C/C(=C\c1ccccc1C(=O)O)C2=O | > 100 µM (inactive) | > 100 µM (inactive) | > 100 µM (inactive) | 56.9 µM (inactive) | 81.8 µM (inactive) | > 100 µM (inactive) | > 100 µM (inactive) | > 100 µM (inactive) | > 100 µM (inactive) | > 100 µM (inactive) | > 100 µM (inactive) | > 100 µM (inactive) | 23.7 µM (inactive) | 82.6 µM (inactive) | 73.3 µM (inactive) | 51.9 µM (inactive) | 33.5 µM (inactive) | > 100 µM (inactive) | – | –
2 | CC1(C)CC(=O)C2=C(C1)OC1=C(CC(C)(C)CC1=O)C2c1ccccc1Cl (stereo not drawn) | > 100 µM (inactive) | > 100 µM (inactive) | > 100 µM (inactive) | > 100 µM (inactive) | > 100 µM (inactive) | > 100 µM (inactive) | – | > 100 µM (inactive) | 59.2 µM (inactive) | > 100 µM (inactive) | > 100 µM (inactive) | > 100 µM (inactive) | > 100 µM (inactive) | > 100 µM (inactive) | 1.94 µM (inactive) | > 100 µM (inactive) | > 100 µM (inactive) | > 100 µM (inactive) | > 100 µM (inactive) | –
3 | COc1cc(C)cc2c1c(=O)c1ccccc1n2C | 22.1 µM (inactive) | 16.8 µM (inactive) | 33.7 µM (inactive) | 33.5 µM (inactive) | 31.4 µM (inactive) | 38.5 µM (inactive) | 56.4 µM (inactive) | 40.8 µM (inactive) | 41.4 µM (inactive) | 48.3 µM (inactive) | 42.1 µM (inactive) | 39.7 µM (inactive) | 37.6 µM (inactive) | 55.3 µM (inactive) | – | 28.3 µM (inactive) | 45.7 µM (inactive) | 29.2 µM (inactive) | 15.9 µM (inactive) | –
4 | NC(=O)C(N)Cc1ccc(O)cn1 (stereo not drawn) | > 100 µM (inactive) | > 100 µM (inactive) | > 100 µM (inactive) | > 100 µM (inactive) | > 100 µM (inactive) | > 100 µM (inactive) | > 100 µM (inactive) | > 100 µM (inactive) | > 100 µM (inactive) | > 100 µM (inactive) | > 100 µM (inactive) | > 100 µM (inactive) | > 100 µM (inactive) | > 100 µM (inactive) | > 100 µM (inactive) | > 100 µM (inactive) | > 100 µM (inactive) | > 100 µM (inactive) | – | –
5 | CN(CCNC(=O)c1cn(C)c2c1ccc1cc(Cl)ccc12)CCNC(=O)c1cn(C)c2c1ccc1cc(Cl)ccc12 | 5.11 µM (inactive) | 5.71 µM (inactive) | 3.26 µM (inactive) | 25.9 µM (inactive) | 5.85 µM (inactive) | 1.99 µM (inactive) | 7.13 µM (inactive) | 2.01 µM (inactive) | 1.79 µM (inactive) | 1.94 µM (inactive) | 3.57 µM (inactive) | 2.21 µM (inactive) | 2.4 µM (inactive) | 1.94 µM (inactive) | 1.53 µM (inactive) | 1.57 µM (inactive) | 1.49 µM (inactive) | 5.5 µM (inactive) | 6.92 µM (inactive) | –
6 | COC(=O)c1c(CC(Cc2ccc3c(c2)CCCC3)C(=O)O)ccc2c1CCCC2 (stereo not drawn) | 30.5 µM (inactive) | 17.5 µM (inactive) | 23 µM (inactive) | 39.9 µM (inactive) | 25.2 µM (inactive) | 36.1 µM (inactive) | 36.1 µM (inactive) | 60.4 µM (inactive) | 22.8 µM (inactive) | 25.8 µM (inactive) | 36.8 µM (inactive) | 31.3 µM (inactive) | 18.8 µM (inactive) | 25.2 µM (inactive) | 25.8 µM (inactive) | 35.2 µM (inactive) | 32.4 µM (inactive) | 36.4 µM (inactive) | 20.9 µM (inactive) | –
7 | NC1=CN2c3ccccc3N(CC(=O)O)C2C=C1 (stereo not drawn) | > 100 µM (inactive) | > 100 µM (inactive) | > 100 µM (inactive) | > 100 µM (inactive) | > 100 µM (inactive) | > 100 µM (inactive) | > 100 µM (inactive) | > 100 µM (inactive) | > 100 µM (inactive) | > 100 µM (inactive) | > 100 µM (inactive) | > 100 µM (inactive) | > 100 µM (inactive) | > 100 µM (inactive) | > 100 µM (inactive) | > 100 µM (inactive) | > 100 µM (inactive) | > 100 µM (inactive) | > 100 µM (inactive) | –
8 | Oc1ccc(SCc2ccc(NCc3ccccc3)cc2)cc1 | 13.1 µM (inactive) | 19.9 µM (inactive) | 14.6 µM (inactive) | 98.2 µM (inactive) | 43.4 µM (inactive) | 0.869 µM (active) | 50.4 µM (inactive) | 24.7 µM (inactive) | 46.6 µM (inactive) | 53 µM (inactive) | 45.5 µM (inactive) | 31.7 µM (inactive) | 30 µM (inactive) | 19.4 µM (inactive) | 14.3 µM (inactive) | 19.9 µM (inactive) | 25.2 µM (inactive) | 18.9 µM (inactive) | 21.7 µM (inactive) | –
9 | O=C(O)c1c2c(cc3c1CC1(Cc4ccccc4C1)C3)CCC2 | 52.8 µM (inactive) | 24.8 µM (inactive) | 41.4 µM (inactive) | > 100 µM (inactive) | 14.9 µM (inactive) | 80 µM (inactive) | > 100 µM (inactive) | 67.5 µM (inactive) | > 100 µM (inactive) | 63.8 µM (inactive) | 59.4 µM (inactive) | 51.3 µM (inactive) | 68.1 µM (inactive) | 40.6 µM (inactive) | 30.3 µM (inactive) | > 100 µM (inactive) | > 100 µM (inactive) | > 100 µM (inactive) | – | –
10 | CC1(C)C=C(/C=N/Nc2ccc([N+](=O)[O-])cc2)C(C#N)=C(O)C1(C#N)C#N | > 100 µM (inactive) | > 100 µM (inactive) | > 100 µM (inactive) | > 100 µM (inactive) | > 100 µM (inactive) | > 100 µM (inactive) | > 100 µM (inactive) | > 100 µM (inactive) | > 100 µM (inactive) | > 100 µM (inactive) | > 100 µM (inactive) | > 100 µM (inactive) | > 100 µM (inactive) | > 100 µM (inactive) | > 100 µM (inactive) | > 100 µM (inactive) | > 100 µM (inactive) | > 100 µM (inactive) | > 100 µM (inactive) | –
11 | NNc1nc2ccccc2c(=O)n1NC(=O)C(=O)Nc1cccc(C(F)(F)F)c1 | > 10 µM (inactive) | > 100 µM (inactive) | > 100 µM (inactive) | > 100 µM (inactive) | > 100 µM (inactive) | > 100 µM (inactive) | > 100 µM (inactive) | > 100 µM (inactive) | > 100 µM (inactive) | > 100 µM (inactive) | 47.6 µM (inactive) | > 100 µM (inactive) | > 100 µM (inactive) | > 100 µM (inactive) | > 100 µM (inactive) | > 100 µM (inactive) | > 100 µM (inactive) | > 100 µM (inactive) | > 100 µM (inactive) | –
12 | CCOC(=O)C(Cc1cccn1C(=O)OC(C)(C)C)[N+](=O)[O-] (stereo not drawn) | 19 µM (inactive) | 17.5 µM (inactive) | 21.1 µM (inactive) | 26.1 µM (inactive) | 28.2 µM (inactive) | 21.9 µM (inactive) | 22.3 µM (inactive) | 34.8 µM (inactive) | 23.9 µM (inactive) | 29.9 µM (inactive) | 21.5 µM (inactive) | 28.1 µM (inactive) | 32.1 µM (inactive) | 48.3 µM (inactive) | 21.2 µM (inactive) | 17.6 µM (inactive) | 21 µM (inactive) | 20.7 µM (inactive) | 20.1 µM (inactive) | –
13 | CC(C)C(/C=C/c1ccccc1)=N\NC(=S)NN | 0.546 µM (active) | 16.5 µM (inactive) | 19.4 µM (inactive) | > 70.3 µM (inactive) | 36.4 µM (inactive) | 56.1 µM (inactive) | > 100 µM (inactive) | > 77.3 µM (inactive) | > 84.1 µM (inactive) | 80.5 µM (inactive) | 67.8 µM (inactive) | > 100 µM (inactive) | 21.3 µM (inactive) | 38 µM (inactive) | 32.3 µM (inactive) | 99.8 µM (inactive) | 99.1 µM (inactive) | 53.3 µM (inactive) | > 55.6 µM (inactive) | –
14 | C/C1=N\[N-]C(=O)c2ccccc2C(=O)N/N=C(\C)c2cccc1n2.O=[N+]([O-])[O-].[Zn+2] | – | – | – | – | – | > 100 µM (inactive) | > 100 µM (inactive) | > 100 µM (inactive) | > 100 µM (inactive) | – | > 100 µM (inactive) | > 100 µM (inactive) | > 100 µM (inactive) | > 100 µM (inactive) | > 100 µM (inactive) | – | > 100 µM (inactive) | – | > 100 µM (inactive) | > 100 µM (inactive)
15 | Nc1ccn([C@H]2CO[C@@H](CO)O2)c(=O)n1 | 1.49 µM (inactive) | 0.804 µM (active) | 0.252 µM (active) | 39.4 µM (inactive) | 1.82 µM (inactive) | 2.87 µM (inactive) | > 100 µM (inactive) | 15.1 µM (inactive) | 1.67 µM (inactive) | > 100 µM (inactive) | 74 µM (inactive) | 62.2 µM (inactive) | > 71.6 µM (inactive) | > 55.8 µM (inactive) | 1.57 µM (inactive) | 1.83 µM (inactive) | 33.7 µM (inactive) | 1.39 µM (inactive) | > 100 µM (inactive) | –

Source: ChEMBL document CHEMBL1201862, “PubChem BioAssay data set” (2004)
